According to article PMC8037569, “Neuroprotective Effect of Aurantio-Obtusin, a Putative Vasopressin V1A Receptor Antagonist, on Transient Forebrain Ischemia Mice Model” (International Journal of Molecular Sciences, 2021):

System: C57BL/6 mice
Assay: Nissl staining, severity of neuronal damage after transient forebrain ischemia (BCCAO)
Format: in vivo, mouse
Details: 10 mg/kg, p.o., vs BCCAO group, score 0 to 3, n = 6/group
Procedure: Male C57BL/6 mice (22–26 g, 7 weeks) were purchased from the Orient Co. Ltd., a branch of Charles River Laboratories (Seoul, Korea), and kept in the University Animal Care Unit for 1 week prior to the experiments. The animals were housed five per cage, allowed access to water and food ad libitum; the environment was maintained at a constant temperature (23 ± 1 °C) and humidity (60 ± 10%) under a 12-h light/dark cycle (the lights were on from 07:30 to 19:30 h). Forty mice were divided equally into four groups (sham + vehicle, n = 10; sham + drug, n = 10; bilateral common carotid artery occluded ischemia + vehicle, n = 10; bilateral common carotid artery occluded ischemia + drug, n = 10) for experiment. The treatment and maintenance of the animals were carried out in accordance with the Animal Care and Use Guidelines of Dong-A University, Korea. All in vivo experiments were performed according to the protocols approved by the Institutional Animal Care and Use Committee of Dong-A University (approved protocol numbers: DIACUC-approved-17-20) and were in accordance with the National Institutes of Health guidelines.
C57BL/6 mice were anesthetized with 2.0% isoflurane and 70% nitrous oxide in oxygen and subjected to transient forebrain ischemia. The transient forebrain ischemia was induced by bilateral common carotid artery occlusion (BCCAO) with aneurysm clips for 20 min, and the circulation was restored by removing the clips. Mice that received the same surgical operation without carotid artery clipping served as sham-operated controls. During the surgical procedure, the rectal temperature was maintained at 37 ± 0.5 °C with a heating pad (Biomed S.L., Barcelona, Spain). The regional cerebral blood flow (rCBF) was monitored using laser Doppler flowmetry (Perimed, PF5010, JarFalla, Sweden). […] After reperfusion, the animals were placed in a warm incubator (32–33 °C) and returned to their home cages. Aurantio-obtusin, which was dissolved in 10% Tween 80 solution, was administered from 1 h to 7 days after BCCAO (10 mg/kg, p.o., once daily).
One day after the test trial of passive avoidance test, mice were anesthetized with Zoletil 50® (10 mg/kg, i.m.) and then perfused transcardially with a 100 mM phosphate buffer (pH 7.4) followed by ice-cold 4% paraformaldehyde. The brains of the mice were removed and post-fixed in a phosphate buffer (50 mM, pH 7.4) containing 4% paraformaldehyde overnight, then immersed in a 30% sucrose solution (in 50 mM phosphate-buffered saline, PBS), and stored at 4 °C until sectioned. The frozen brains were coronally sectioned on a cryostat at 30 μm and then stored in a storage solution (30% ethylene glycol, 30% glycerin, and 20 mM phosphate buffer) at 4 °C. Hippocampal sections were collected based on the mouse brain atlas.
After the sections were mounted onto gelatin-coated slides, they were stained with 0.5% cresyl violet, dehydrated through graded alcohols (70, 80, 90, and 100% × 2), placed in xylene, and covered with a coverslip after the addition of Histomount media. The number of cells in selected regions (medial CA1, mCA1; dorsal CA1, dCA1; CA2; cortex) were determined using a computerized image analysis system (Leica Microsystems AG, Wetzlar, Germany). The cells were counted in six sections by every eight sections interval (total 48 sections) per animal by a person blind to the treatment group, and the average cell count per section was computed. The degree of damage by the Nissl staining after ischemia was semiquantitatively scored from 0 to 3 (0, normal; 1, <30% of the neurons were irreversibly damaged; 2, 30–60% of the neurons were irreversibly damaged; 3, 60–100% of the neurons were irreversibly damaged).

SMILES: COc1c(O)cc2c(c1O)C(=O)c1c(cc(C)c(O)c1OC)C2=O [Aurantio-obtusin, 1,3,7-trihydroxy-2,8-dimethoxy-6-methylanthracene-9,10-dione]
- Severity of neuronal damage in CA2: not in CA2 region
- Severity of neuronal damage in cortex: significantly reduced the severity of damage
- Severity of neuronal damage in dCA1: significantly reduced the severity of damage
- Severity of neuronal damage in mCA1: significantly reduced the severity of damage
- Severity of neuronal damage in cortex (listed as Aurnatio-obtusin): significantly reduced the severity
- Severity of neuronal damage in dCA1 (listed as Aurnatio-obtusin): significantly reduced the severity
- Severity of neuronal damage in mCA1 (listed as Aurnatio-obtusin): significantly reduced the severity
